Columns and labels:
Experiment in all cases: relative viability (nuclei count vs DMSO), 5 days (fraction); higher = more cells survive
[1] = compound: Nc1ncn([C@H]2C[C@H](O)[C@@H](CO)O2)c(=O)n1 [Decitabine] + CC(=O)Nc1cccc(-n2c(=O)n(C3CC3)c(=O)c3c(Nc4ccc(I)cc4F)n(C)c(=O)c(C)c32)c1 [Trametinib] (partner 0.02 µM)
Outline: (§1)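 Lung cancer cell lines in 1536-well plates were dosed by pin tool the day after seeding, either with one drug alone or with a fixed anchor-drug dose plus five library-drug doses (not always all listed) in √10 steps. After 5 days, cells were fixed and their nuclei stained in one step (final 0.05% Triton X-100, 1% formaldehyde, 1 ug/ml Hoechst), then counted on 4× images. Relative viability is the nuclei count in treated wells divided by that in vehicle wells. Values are medians of duplicate plates.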

[2] = compound: COc1cc2c(Oc3ccc4[nH]c(C)cc4c3F)ncnc2cc1OCCCN1CCCC1 [Cediranib] + Nc1nc2[nH]cc(CCc3ccc(C(=O)N[C@@H](CCC(=O)O)C(=O)O)cc3)c2c(=O)[nH]1 [Pemetrexed] (partner 0.2 µM)
Outline: as §1

[3] = compound: Nc1ncn([C@H]2C[C@H](O)[C@@H](CO)O2)c(=O)n1 [Decitabine] + O=C(c1cc(Cc2n[nH]c(=O)c3ccccc23)ccc1F)N1CCN(C(=O)C2CC2)CC1 [Olaparib] (partner 8 µM)
Outline: as §1

[4] = compound: COc1cc2c(Oc3ccc4[nH]c(C)cc4c3F)ncnc2cc1OCCCN1CCCC1 [Cediranib] + O=C(c1cc(Cc2n[nH]c(=O)c3ccccc23)ccc1F)N1CCN(C(=O)C2CC2)CC1 [Olaparib] (partner 8 µM)
Outline: as §1

With LU99A the relative viability ([1]; first compound 0.04 µM) was 0.51, the relative viability ([1]; first compound 0.1265 µM) was 0.569 and the relative viability ([1]; first compound 0.4 µM) was 0.632. For the same cell line, the relative viability ([1]; first compound 1.265 µM) was 0.397, the relative viability ([1]; first compound 4 µM) was 0.396 and the relative viability ([2]; first compound 0.04 µM) was 0.173. For the same cell line, the relative viability ([2]; first compound 0.4 µM) was 0.172, the relative viability ([2]; first compound 1.265 µM) was 0.2 and the relative viability ([2]; first compound 4 µM) was 0.17. For the same cell line, the relative viability ([3]; first compound 0.04 µM) was 0.247, the relative viability ([3]; first compound 0.1265 µM) was 0.238 and the relative viability ([3]; first compound 0.4 µM) was 0.217. The relative viability ([3]; first compound 1.265 µM) was 0.193, the relative viability ([3]; first compound 4 µM) was 0.187 and the relative viability ([4]; first compound 0.04 µM) was 0.236. It also gave a relative viability ([4]; first compound 0.4 µM) of 0.244, a relative viability ([4]; first compound 1.265 µM) of 0.267 and a relative viability ([4]; first compound 4 µM) of 0.314.

NCI-H1944 gave a relative viability ([1]; first compound 0.04 µM) of 0.435, a relative viability ([1]; first compound 0.1265 µM) of 0.441 and a relative viability ([1]; first compound 0.4 µM) of 0.369. It also gave a relative viability ([1]; first compound 1.265 µM) of 0.254, a relative viability ([1]; first compound 4 µM) of 0.256 and a relative viability ([2]; first compound 0.04 µM) of 0.709. It also gave a relative viability ([2]; first compound 0.1265 µM) of 0.473, a relative viability ([2]; first compound 0.4 µM) of 0.562 and a relative viability ([2]; first compound 1.265 µM) of 0.593. For the same cell line, the relative viability ([2]; first compound 4 µM) was 0.713, the relative viability ([3]; first compound 0.04 µM) was 0.281 and the relative viability ([3]; first compound 0.1265 µM) was 0.307. It also gave a relative viability ([3]; first compound 0.4 µM) of 0.255, a relative viability ([3]; first compound 1.265 µM) of 0.192 and a relative viability ([3]; first compound 4 µM) of 0.207. The relative viability ([4]; first compound 0.04 µM) was 0.391, the relative viability ([4]; first compound 0.1265 µM) was 0.394 and the relative viability ([4]; first compound 0.4 µM) was 0.395. For the same cell line, the relative viability ([4]; first compound 1.265 µM) was 0.407 and the relative viability ([4]; first compound 4 µM) was 0.376.

With LK-2 the relative viability ([1]; first compound 0.04 µM) was 0.692, the relative viability ([1]; first compound 0.1265 µM) was 0.674 and the relative viability ([1]; first compound 0.4 µM) was 0.605. It also gave a relative viability ([1]; first compound 1.265 µM) of 0.435, a relative viability ([1]; first compound 4 µM) of 0.371 and a relative viability ([2]; first compound 0.04 µM) of 0.324. The relative viability ([2]; first compound 0.1265 µM) was 0.202, the relative viability ([2]; first compound 0.4 µM) was 0.247 and the relative viability ([2]; first compound 1.265 µM) was 0.177. It also gave a relative viability ([2]; first compound 4 µM) of 0.209, a relative viability ([3]; first compound 0.04 µM) of 0.497 and a relative viability ([3]; first compound 0.1265 µM) of 0.38. It also gave a relative viability ([3]; first compound 0.4 µM) of 0.297, a relative viability ([3]; first compound 1.265 µM) of 0.211 and a relative viability ([3]; first compound 4 µM) of 0.24. It also gave a relative viability ([4]; first compound 0.04 µM) of 0.67, a relative viability ([4]; first compound 0.1265 µM) of 0.334 and a relative viability ([4]; first compound 0.4 µM) of 0.681. The relative viability ([4]; first compound 1.265 µM) was 0.802 and the relative viability ([4]; first compound 4 µM) was 0.733.

Work on NCI-H441 yielded a relative viability ([1]; first compound 0.04 µM) of 0.317, a relative viability ([1]; first compound 0.1265 µM) of 0.281 and a relative viability ([1]; first compound 0.4 µM) of 0.255. For the same cell line, the relative viability ([1]; first compound 1.265 µM) was 0.183, the relative viability ([1]; first compound 4 µM) was 0.206 and the relative viability ([2]; first compound 0.04 µM) was 0.265. For the same cell line, the relative viability ([2]; first compound 0.1265 µM) was 0.291, the relative viability ([2]; first compound 0.4 µM) was 0.258 and the relative viability ([2]; first compound 1.265 µM) was 0.271. It also gave a relative viability ([2]; first compound 4 µM) of 0.257, a relative viability ([3]; first compound 0.04 µM) of 0.151 and a relative viability ([3]; first compound 0.1265 µM) of 0.219. The relative viability ([3]; first compound 0.4 µM) was 0.157, the relative viability ([3]; first compound 1.265 µM) was 0.128 and the relative viability ([3]; first compound 4 µM) was 0.136. The relative viability ([4]; first compound 0.04 µM) was 0.564, the relative viability ([4]; first compound 0.1265 µM) was 0.605 and the relative viability ([4]; first compound 0.4 µM) was 0.597. The relative viability ([4]; first compound 1.265 µM) was 0.702 and the relative viability ([4]; first compound 4 µM) was 0.575.

NCI-H23 showed a relative viability ([1]; first compound 0.04 µM) of 0.344, a relative viability ([1]; first compound 0.1265 µM) of 0.365 and a relative viability ([1]; first compound 0.4 µM) of 0.238. It also gave a relative viability ([1]; first compound 1.265 µM) of 0.191, a relative viability ([1]; first compound 4 µM) of 0.255 and a relative viability ([2]; first compound 0.04 µM) of 0.602. For the same cell line, the relative viability ([2]; first compound 0.1265 µM) was 0.693, the relative viability ([2]; first compound 0.4 µM) was 0.525 and the relative viability ([2]; first compound 1.265 µM) was 0.692. For the same cell line, the relative viability ([2]; first compound 4 µM) was 0.699, the relative viability ([3]; first compound 0.04 µM) was 0.229 and the relative viability ([3]; first compound 0.1265 µM) was 0.2. For the same cell line, the relative viability ([3]; first compound 0.4 µM) was 0.166, the relative viability ([3]; first compound 1.265 µM) was 0.134 and the relative viability ([3]; first compound 4 µM) was 0.154. For the same cell line, the relative viability ([4]; first compound 0.04 µM) was 0.373, the relative viability ([4]; first compound 0.1265 µM) was 0.326 and the relative viability ([4]; first compound 0.4 µM) was 0.277. It also gave a relative viability ([4]; first compound 1.265 µM) of 0.323 and a relative viability ([4]; first compound 4 µM) of 0.342.

For NCI-H647, the relative viability ([1]; first compound 0.04 µM) was 0.589, the relative viability ([1]; first compound 0.1265 µM) was 0.595 and the relative viability ([1]; first compound 0.4 µM) was 0.43. The relative viability ([1]; first compound 1.265 µM) was 0.246, the relative viability ([1]; first compound 4 µM) was 0.138 and the relative viability ([2]; first compound 0.04 µM) was 0.185. For the same cell line, the relative viability ([2]; first compound 0.1265 µM) was 0.254, the relative viability ([2]; first compound 0.4 µM) was 0.2 and the relative viability ([2]; first compound 1.265 µM) was 0.178. For the same cell line, the relative viability ([2]; first compound 4 µM) was 0.172, the relative viability ([3]; first compound 0.04 µM) was 0.154 and the relative viability ([3]; first compound 0.1265 µM) was 0.131. For the same cell line, the relative viability ([3]; first compound 0.4 µM) was 0.103, the relative viability ([3]; first compound 1.265 µM) was 0.0693 and the relative viability ([3]; first compound 4 µM) was 0.0747. It also gave a relative viability ([4]; first compound 0.04 µM) of 0.772, a relative viability ([4]; first compound 0.1265 µM) of 0.652 and a relative viability ([4]; first compound 0.4 µM) of 0.501. The relative viability ([4]; first compound 1.265 µM) was 0.551 and the relative viability ([4]; first compound 4 µM) was 0.437.

201T was tested, and the relative viability ([1]; first compound 0.04 µM) was 0.739, the relative viability ([1]; first compound 0.1265 µM) was 0.721 and the relative viability ([1]; first compound 0.4 µM) was 0.773. It also gave a relative viability ([1]; first compound 4 µM) of 0.708, a relative viability ([2]; first compound 0.04 µM) of 0.344 and a relative viability ([2]; first compound 0.1265 µM) of 0.314. For the same cell line, the relative viability ([2]; first compound 0.4 µM) was 0.327, the relative viability ([2]; first compound 1.265 µM) was 0.359 and the relative viability ([2]; first compound 4 µM) was 0.355. It also gave a relative viability ([3]; first compound 0.04 µM) of 0.555, a relative viability ([3]; first compound 0.1265 µM) of 0.494 and a relative viability ([3]; first compound 0.4 µM) of 0.406. For the same cell line, the relative viability ([3]; first compound 4 µM) was 0.781, the relative viability ([4]; first compound 0.04 µM) was 0.805 and the relative viability ([4]; first compound 0.1265 µM) was 0.862. It also gave a relative viability ([4]; first compound 0.4 µM) of 0.808, a relative viability ([4]; first compound 1.265 µM) of 0.829 and a relative viability ([4]; first compound 4 µM) of 0.828.

NCI-H1734 showed a relative viability ([1]; first compound 0.04 µM) of 0.595, a relative viability ([1]; first compound 0.1265 µM) of 0.575 and a relative viability ([1]; first compound 0.4 µM) of 0.404. It also gave a relative viability ([1]; first compound 1.265 µM) of 0.313, a relative viability ([1]; first compound 4 µM) of 0.333 and a relative viability ([2]; first compound 0.04 µM) of 0.472. The relative viability ([2]; first compound 0.1265 µM) was 0.409, the relative viability ([2]; first compound 0.4 µM) was 0.412 and the relative viability ([2]; first compound 1.265 µM) was 0.425. The relative viability ([2]; first compound 4 µM) was 0.425, the relative viability ([3]; first compound 0.04 µM) was 0.274 and the relative viability ([3]; first compound 0.1265 µM) was 0.302. The relative viability ([3]; first compound 0.4 µM) was 0.203, the relative viability ([3]; first compound 1.265 µM) was 0.152 and the relative viability ([3]; first compound 4 µM) was 0.191. For the same cell line, the relative viability ([4]; first compound 0.04 µM) was 0.683, the relative viability ([4]; first compound 0.1265 µM) was 0.623 and the relative viability ([4]; first compound 0.4 µM) was 0.59. The relative viability ([4]; first compound 1.265 µM) was 0.676 and the relative viability ([4]; first compound 4 µM) was 0.764.

Cell Line NCI-H596 has a relative viability ([1]; first compound 0.04 µM) of 0.881, a relative viability ([1]; first compound 0.1265 µM) of 0.744 and a relative viability ([1]; first compound 0.4 µM) of 0.509. It also gave a relative viability ([1]; first compound 1.265 µM) of 0.575, a relative viability ([1]; first compound 4 µM) of 0.542 and a relative viability ([2]; first compound 0.04 µM) of 0.472. It also gave a relative viability ([2]; first compound 0.1265 µM) of 0.499, a relative viability ([2]; first compound 0.4 µM) of 0.427 and a relative viability ([2]; first compound 1.265 µM) of 0.476. It also gave a relative viability ([2]; first compound 4 µM) of 0.525, a relative viability ([3]; first compound 0.04 µM) of 0.609 and a relative viability ([3]; first compound 0.1265 µM) of 0.602. It also gave a relative viability ([3]; first compound 0.4 µM) of 0.353, a relative viability ([3]; first compound 1.265 µM) of 0.431 and a relative viability ([3]; first compound 4 µM) of 0.56. The relative viability ([4]; first compound 0.04 µM) was 0.798, the relative viability ([4]; first compound 0.1265 µM) was 0.8 and the relative viability ([4]; first compound 0.4 µM) was 0.721. For the same cell line, the relative viability ([4]; first compound 1.265 µM) was 0.99 and the relative viability ([4]; first compound 4 µM) was 0.731.

From the supplement of paper PMC10307832
